Reference: DBAASP
Converted amounts (≈) assume the structure as drawn. Each block holds one compound with its values, some of them ahead of it.

Experiments:
Test in all cases: ≥ marks a high value that may be exact or a test limit, other limits are often not marked, values filed in µg/mL are converted to µM
[1] = tested on: Pseudomonas aeruginosa ATCC 27853
[2] = tested on: Salmonella typhimurium SL1344
[3] = tested on: Escherichia coli
[4] = tested on: Staphylococcus epidermidis
[5] = tested on: Klebsiella pneumoniae XJ75297
[6] = tested on: Shigella flexneri ATCC 12022
[7] = tested on: Pseudomonas aeruginosa XJ75315
[8] = tested on: Staphylococcus aureus ATCC 29213
[9] = tested on: Escherichia coli ATCC 25922
[10] = tested on: Escherichia coli ATCC 35218
[11] = tested on: Staphylococcus aureus CCT 2580
[12] = tested on: Bacillus cereus ATCC 11778
[13] = tested on: Escherichia coli CCT 1457
[14] = tested on: Pseudomonas aeruginosa ATCC 15422
[15] = tested on: Pectobacterium carotovorum
[16] = tested on: Lysinibacillus sphaericus TISTR 678
[17] = tested on: Vibrio cholerae
[18] = tested on: Salmonella enterica subsp. enterica serovar Typhi
[19] = tested on: Salmonella enterica subsp. enterica serovar Typhi ATCC 5784
[20] = tested on: Escherichia coli O157:H7
[21] = tested on: Bacillus megaterium
[22] = tested on: Bacillus subtilis C626
[23] = tested on: Staphylococcus aureus C622
[24] = tested on: Acinetobacter baumannii ATCC 17978
[25] = tested on: Bacillus subtilis ATCC 6633
[26] = tested on: Micrococcus luteus ATCC 9341
[27] = tested on: Escherichia coli NIHJ
[28] = tested on: Staphylococcus aureus 209P
[29] = tested on: Pseudomonas aeruginosa PAO1
[30] = tested on: Streptococcus pyogenes COOK
[31] = tested on: Candida parapsilosis ATCC 22019
[32] = tested on: Cryptococcus neoformans
[33] = tested on: Pseudomonas aeruginosa ATCC BAA-427
[34] = tested on: Candida albicans
[35] = tested on: Klebsiella pneumoniae ATCC 27736
[36] = tested on: Escherichia coli ATCC 10536
[37] = tested on: Aspergillus fumigatus
[38] = tested on: Staphylococcus epidermidis NRRL B-4268
[39] = tested on: Trichophyton mentagrophytes
[40] = tested on: Sporothrix schenckii
[41] = tested on: Staphylococcus aureus MR
[42] = tested on: Staphylococcus aureus ATCC 9144

Structure (SMILES): CC[C@H](C)[C@H](N)C(=O)N[C@@H](CC(N)=O)C(=O)N[C@@H](Cc1c[nH]c2ccccc12)C(=O)N[C@@H](CCCCN)C(=O)N[C@@H](C)C(=O)N[C@@H](CC(C)C)C(=O)N[C@@H](CC(C)C)C(=O)N[C@@H](CC(=O)O)C(=O)N[C@@H](C)C(=O)N[C@@H](C)C(=O)N[C@@H](CCCCN)C(=O)N[C@@H](CCCCN)C(=O)N[C@H](C(=O)N[C@@H](CC(C)C)C(=O)O)C(C)C [INWKALLDAAKKVL]
MIC [11]: ≥ 158 µM | MIC [12]: ≥ 39.5 µM | MIC [13]: ≥ 39.5 µM | MIC [14]: ≥ 316 µM

Structure (SMILES): CC[C@H](C)[C@H](NC(=O)[C@H](CO)NC(=O)[C@H](CCCN=C(N)N)NC(=O)CNC(=O)[C@H](CCC(=O)O)NC(=O)[C@@H](N)CC(C)C)C(=O)N[C@@H](CO)C(=O)N[C@@H](CCCN=C(N)N)C(=O)N[C@H](C(=O)N[C@@H](CC(=O)O)C(=O)N[C@@H](CCC(=O)O)C(=O)N[C@@H](CC(C)C)C(=O)N[C@H](C(=O)N[C@@H](CCC(N)=O)C(=O)N[C@@H](CCC(N)=O)C(=O)N[C@@H](CCCN=C(N)N)C(=O)N[C@@H](CCC(N)=O)C(=O)N[C@@H](CCC(=O)O)C(=O)N[C@@H](CCCCN)C(=O)N[C@@H](CC(=O)O)C(=O)O)[C@@H](C)CC)[C@@H](C)CC [LEGRSISRIDELIQQRQEKD]
MIC [15]: 2.04 µM (≈ 4.92 µg/mL)

Structure (SMILES): CC(C)C[C@H](NC(=O)[C@H](CCCCN)NC(=O)[C@H](CC(C)C)NC(=O)[C@@H](NC(=O)[C@H](CCCN=C(N)N)NC(=O)[C@H](CCCN=C(N)N)NC(=O)[C@@H](NC(=O)[C@H](Cc1c[nH]c2ccccc12)NC(=O)[C@H](CCCCN)NC(=O)[C@H](CCCN=C(N)N)NC(=O)[C@@H](NC(=O)[C@H](CCCN=C(N)N)NC(=O)[C@H](CCCN=C(N)N)NC(=O)[C@@H](N)C(C)C)C(C)C)C(C)C)C(C)C)C(=O)N[C@H](C(N)=O)C(C)C [VRRVRKWVRRVLKLV]
MIC [31]: 1.5 µM (≈ 2.94 µg/mL) | MIC [25]: 6.8 µM (≈ 13.3 µg/mL) | MIC [32]: 8.4 µM (≈ 16.5 µg/mL) | MIC [33]: 3.2 µM (≈ 6.28 µg/mL) | MIC [34]: 9.6 µM (≈ 18.8 µg/mL) | MIC [35]: 3.2 µM (≈ 6.28 µg/mL) | MIC [36]: 3 µM (≈ 5.89 µg/mL) | MIC [37]: 8.4 µM (≈ 16.5 µg/mL) | MIC [38]: 6 µM (≈ 11.8 µg/mL) | MIC [39]: 6 µM (≈ 11.8 µg/mL) | MIC [40]: 6 µM (≈ 11.8 µg/mL) | MIC [41]: 12.5 µM (≈ 24.5 µg/mL) | MIC [42]: 5.1 µM (≈ 10 µg/mL)

The next lines start with results.

MIC [1]: 6.57 µM (≈ 16 µg/mL) | MIC [2]: 0.41 µM (≈ 1 µg/mL) | MIC [3]: 0.41 µM (≈ 1 µg/mL) | MIC [4]: 6.57 µM (≈ 16 µg/mL) | MIC [5]: 0.41 µM (≈ 1 µg/mL) | MIC [6]: 0.103 µM (≈ 0.25 µg/mL) | MIC [7]: 0.41 µM (≈ 1 µg/mL) | MIC [8]: 105 µM (≈ 256 µg/mL) | MIC [9]: 0.41 µM (≈ 1 µg/mL) | MIC [10]: 0.41 µM (≈ 1 µg/mL)
Structure (SMILES): CC[C@H](C)[C@H](NC(=O)[C@@H](NC(=O)[C@@H]1CCCN1C(=O)[C@@H](NC(=O)[C@@H]1CCCN1C(=O)[C@H](CCCCN)NC(=O)[C@H](CCCCN)NC(=O)[C@H](CO)NC(=O)CN)C(C)C)[C@@H](C)CC)C(=O)N[C@@H](Cc1ccc(O)cc1)C(=O)N[C@@H](CS)C(=O)N[C@@H](CC(N)=O)C(=O)N[C@@H](CCCN=C(N)N)C(=O)N[C@@H](CCCN=C(N)N)C(=O)N[C@H](C(=O)NCC(=O)N[C@@H](CCCCN)C(=O)N[C@@H](CS)C(=O)N[C@@H](CCC(N)=O)C(=O)N[C@@H](CCCN=C(N)N)C(=O)N[C@@H](CCSC)C(=O)O)[C@@H](C)O [GSKKPVPIIYCNRRTGKCQRM]

MIC [16]: ≥ 64 µM | MIC [18]: ≥ 64 µM | MIC [19]: ≥ 64 µM | MIC [20]: ≥ 64 µM | MIC [21]: 28.3 µM (≈ 50 µg/mL)
Structure (SMILES): CC(C)C[C@H](NC(=O)CNC(=O)[C@H](C)NC(=O)[C@H](CCCCN)NC(=O)[C@H](CCCCN)NC(=O)[C@@H](N)CC(N)=O)C(=O)N[C@@H](Cc1ccccc1)C(=O)N[C@H](C(=O)N[C@H](C(=O)N[C@@H](CCC(N)=O)C(=O)N[C@@H](Cc1ccccc1)C(=O)N1CCC[C@H]1C(=O)N[C@@H](CCCCN)C(=O)N[C@@H](CCCCN)C(=O)N[C@@H](Cc1ccc(O)cc1)C(=O)O)C(C)C)C(C)C [NKKAGLFVVQFPKKY]
MIC [17]: ≥ 52 µM

MIC [22]: 20 µM (≈ 28.9 µg/mL) | MIC [23]: 2.5 µM (≈ 3.61 µg/mL) | MIC [20]: 1.25 µM (≈ 1.8 µg/mL) | MIC [24]: 5 µM (≈ 7.22 µg/mL)
Structure (SMILES): CC[C@H](C)[C@H](NC(=O)[C@H](Cc1c[nH]c2ccccc12)NC(=O)[C@H](CCCN=C(N)N)NC(=O)[C@H](Cc1c[nH]c2ccccc12)NC(=O)[C@H](Cc1c[nH]c2ccccc12)NC(=O)[C@H](CCCCN)NC(=O)[C@@H](N)CCCN=C(N)N)C(=O)N[C@@H](CCCCN)C(=O)N[C@@H](Cc1c[nH]c2ccccc12)C(N)=O [RKWWRWIKW]

MIC [25]: 1.78 µM (≈ 6.25 µg/mL) | MIC [26]: 0.444 µM (≈ 1.56 µg/mL) | MIC [27]: 3.56 µM (≈ 12.5 µg/mL) | MIC [28]: 1.78 µM (≈ 6.25 µg/mL) | MIC [29]: 28.4 µM (≈ 99.9 µg/mL) | MIC [30]: 3.56 µM (≈ 12.5 µg/mL)
Structure (SMILES): CC[C@H](C)[C@H](NC(=O)[C@H](CC(C)C)NC(=O)[C@H](CO)NC(=O)[C@H](Cc1ccccc1)NC(=O)[C@H](CC(C)C)NC(=O)[C@@H](N)CO)C(=O)N[C@@H](CCCCN)C(=O)N[C@@H](C)C(=O)NCC(=O)N[C@@H](C)C(=O)N[C@@H](CCCCN)C(=O)N[C@@H](Cc1ccccc1)C(=O)N[C@@H](CC(C)C)C(=O)NCC(=O)N[C@@H](CCCCN)C(=O)N[C@@H](CC(N)=O)C(=O)N[C@@H](CC(C)C)C(=O)N[C@@H](CC(C)C)C(=O)N[C@@H](CCCCN)C(=O)N[C@@H](CCC(N)=O)C(=O)NCC(=O)N[C@@H](C)C(=O)N[C@@H](CCC(N)=O)C(=O)N[C@@H](Cc1ccc(O)cc1)C(=O)N[C@@H](C)C(=O)N[C@@H](C)C(=O)N[C@H]1CSSC[C@@H](C(=O)O)NC(=O)[C@H](CCC(=O)O)NC(=O)[C@H](CCCCN)NC(=O)[C@H](CO)NC(=O)[C@H](C(C)C)NC(=O)[C@H](CCCCN)NC1=O [SLFSLIKAGAKFLGKNLLKQGAQYAACKVSKEC]
